{
  "source": "patent US6387954B1",
  "about": "“Alkenyl sulphonamide derivatives” (Eli Lilly and Company, priority 1998, dated 2002)",
  "biological_target": "T1, human GluR4B receptor (Homo sapiens, UniProt P48058)",
  "T1 construct": "expressed in transfected cells; host or cells: HEK293",
  "T1 sequence (P48058 21-902)": "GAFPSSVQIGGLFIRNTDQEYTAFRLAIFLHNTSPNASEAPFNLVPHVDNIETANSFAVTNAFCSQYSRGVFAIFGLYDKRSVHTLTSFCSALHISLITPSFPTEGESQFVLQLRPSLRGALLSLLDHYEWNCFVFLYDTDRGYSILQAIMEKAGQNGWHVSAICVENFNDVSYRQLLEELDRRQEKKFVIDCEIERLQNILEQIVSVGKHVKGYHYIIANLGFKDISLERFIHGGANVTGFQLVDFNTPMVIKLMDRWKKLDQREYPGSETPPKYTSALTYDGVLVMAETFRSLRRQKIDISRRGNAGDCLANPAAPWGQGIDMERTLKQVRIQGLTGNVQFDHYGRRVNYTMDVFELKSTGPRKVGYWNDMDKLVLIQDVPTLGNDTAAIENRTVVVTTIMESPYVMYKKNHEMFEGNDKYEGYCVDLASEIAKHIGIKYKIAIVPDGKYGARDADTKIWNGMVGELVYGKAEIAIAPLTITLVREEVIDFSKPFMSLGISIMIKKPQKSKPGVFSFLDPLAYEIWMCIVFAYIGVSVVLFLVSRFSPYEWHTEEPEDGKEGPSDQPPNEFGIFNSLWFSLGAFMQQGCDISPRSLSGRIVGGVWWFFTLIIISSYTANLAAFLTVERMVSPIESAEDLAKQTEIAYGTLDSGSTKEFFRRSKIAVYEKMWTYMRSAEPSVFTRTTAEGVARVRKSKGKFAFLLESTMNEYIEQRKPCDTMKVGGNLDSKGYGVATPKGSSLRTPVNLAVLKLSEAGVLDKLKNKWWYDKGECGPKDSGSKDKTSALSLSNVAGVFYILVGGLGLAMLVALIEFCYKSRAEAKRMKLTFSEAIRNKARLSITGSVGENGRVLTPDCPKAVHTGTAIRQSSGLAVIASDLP",
  "experiment": "potentiation of agonist-induced excitability of GluR4B expressed in HEK 293 cells",
  "assay_type": "cell-based",
  "settings": "human GluR4B receptor expressed in HEK 293 cells",
  "from_the_text": "The ability of compounds of formula I to potentiate glutamate receptor-mediated response may be determined using fluorescent calcium indicator dyes (Molecular Probes, Eugene, Oregon, Fluo-3) and by measuring glutamate-evoked […] of calcium into GluR4 transfected HEK293 cells, as described in more detail below.\nIn one test, 96 well plates containing confluent monolayers of HEK cells stably expressing human GluR4B (obtained as described in European Patent Application Publication Number EP-A1-583917) are prepared. The tissue culture medium in the wells is then discarded, and the wells are each washed once with 200 μl of buffer (glucose, 10 mM, sodium chloride, 138 mM, magnesium chloride, 1 mM, potassium chloride, 5 mM, calcium chloride, 5 mM, N-[2-hydroxyethyl]-piperazine-N-[2-ethanesulfonic acid], 10 mM, to pH 7.1 to 7.3). […]\nEach test is then performed as follows. […] A second fluorescent reading is taken after 5 minutes incubation. 15 μl of 400 μM glutamate solution is then added to each well (final glutamate concentration 100 μM), and a third reading is taken. The activities of test compounds and cyclothiazide solutions are determined by subtracting the second from the third reading (fluorescence due to addition of glutamate in the presence or absence of test compound or cyclothiazide) and are expressed relative to enhance fluorescence produced by 100 μM cyclothiazide.",
  "data": [
    {"molecule": "NS(=O)(=O)c1cc2c(cc1Cl)NC(C1CC3C=CC1C3)NS2(=O)=O", "note": "(stereo not shown) [cyclothiazide]", "values": [
      {"measurement": "potentiation of agonist-induced excitability", "result": "potentiate agonist-induced excitability"}
    ]}
  ]
}
